The target in this data set is T1, SERCA2 (Homo sapiens, UniProt P16615).
T1 construct: endogenous in cells; host or cells: HEK-293T cells, microsomal membrane vesicles (HEK-293 ER)
The data set is described as follows: NADH-coupled ATPase assay on microsomal membrane vesicles from HEK-293T cells (HEK-293 ER). The class given is biochemical. Conditions: for SERCA2 ATPase activity in HEK-293 ER microsomes (in words): 10 μM, vs 0.1 v/v% DMSO; for SERCA2a HEK ER effect class: 10 μM (1 μM for 12b per Figure S7), microsomal membrane vesicles. The text has this: Cyclopropanol derivatives have a variety of biological activities including enzyme inhibition and antibacterial and anticancer properties.[47]−[50] However, there have been no published reports on cyclopropanol-containing molecules specifically acting as modulators of RyRs and/or activators of SERCA. To investigate more directly whether the compounds influence the SERCA2 activity, we performed nicotinamide adenine dinucleotide (NADH) fluorescence-coupled ATPase assay according to Radnai et al.[51] In this assay, the change in NADH coenzyme fluorescence reflects the level of the consumption of ATP, which we took as indicator of SERCA2 activity.[51],[52] ATP hydrolysis by SERCA2 is required to pump calcium ions into the SR. We assume that a higher rate of ATP hydrolysis reflects an increase in SERCA2 ATPase activity that leads to a greater pumping of calcium ions into the SR.
We observed the rate of NADH oxidation, which is coupled to ATP hydrolysis, by measuring changes in NADH intrinsic fluorescence over time after ATP injection into microsomal membranes enriched in SR vesicles isolated from mouse heart ventricles (mouse SR) and HEK-293T cells (HEK-293 ER). The presence of SERCA2 in mouse SR and HEK-293 ER of isolated microsomal vesicles was confirmed by Western blotting (Figures S5 and S6; for details see Experimental Section). The NADH fluorescence decrease was recorded on a multiwell plate reader TECAN Spark 20M (λex = 380 nm, λem = 470 nm). […] Consistent with our previous experiment on HL-1 cells, we observed a strong decrease in NADH fluorescence reflecting an increase in SERCA2a activity in SR microsomes derived from mouse heart ventricles (n = 3–5) in solutions containing the tested compounds compared to the 0.1 v/v% DMSO sample (Figure 6). […] Similar results were obtained in cardiac SR vesicles from the mouse heart. […] This difference may indicate isoform-specific effects of our compound in HEK-293 cells expressing mostly SERCA2b[53] versus mouse SR vesicles containing mostly SERCA2a.[54] In both experiments, we used CDN1163 as a positive control.
Isolation of microsomal membrane vesicles from HEK-293T cells (HEK-293 ER) was performed according to Stewart et al.[61] HEK-293T cells were harvested with Trypsin/EDTA, washed twice with ice-cold PBS containing protease inhibitor cocktail (cOmplete, Roche, Mannheim, Germany), and centrifuged 800 × g for 5 min. The pellet was resuspended in ice-cold lysis buffer (1 mM EDTA, 10 mM HEPES, cOmplete, pH 7.4) and incubated on ice for 20 min. After the cells were homogenized with a tight-fitting Dounce homogenizer (10–20 strokes), an equal volume of restoration buffer (500 mM sucrose, 10 mM HEPES, cOmplete, pH 7.2) was added and the cells were homogenized again (10–20 strokes). The homogenate was centrifuged at 10,000 × g for 20 min at 4 °C. The supernatant was collected and centrifuged again for another 2 h (10^5 × g at 4 °C). Then, the pellet was carefully resuspended in resuspension buffer (250 mM sucrose, 10 mM HEPES, cOmplete, pH 7.2) on ice by pipetting the solution up and down until it was fully dissolved. The obtained solution was diluted to a protein concentration of 15–20 μg/μL with the resuspension buffer; the aliquots were snap frozen in liquid nitrogen and stored at −80 °C until usage.
To determine whether new compounds could increase the SERCA2 activity, HEK-293 microsomes (40–150 μg of total protein) or mouse ventricular microsomes (1–20 μg of total protein) were diluted in 100 μL of the assay buffer used for measurement of SERCA activity (described below) and incubated at room temperature for 5 min prior to the experiments. The measurements of SERCA2 activity were made at 28 °C by using a NADH-coupled ATPase assay as described in Radnai et al. with slight modifications.[51] Briefly, the assay buffer contained 60 mM MOPS, 120 mM KCl, 6 mM MgCl2, 1 mM EGTA, 5 mM NaN3, 0.5 mM phosphoenolpyruvate, and 1.5 mM CaCl2, pH 7.0. […]

Molecules are shown by their SMILES. “Also recorded” adds a separate entry of the source.

T1 sequence (P16615 whole entry): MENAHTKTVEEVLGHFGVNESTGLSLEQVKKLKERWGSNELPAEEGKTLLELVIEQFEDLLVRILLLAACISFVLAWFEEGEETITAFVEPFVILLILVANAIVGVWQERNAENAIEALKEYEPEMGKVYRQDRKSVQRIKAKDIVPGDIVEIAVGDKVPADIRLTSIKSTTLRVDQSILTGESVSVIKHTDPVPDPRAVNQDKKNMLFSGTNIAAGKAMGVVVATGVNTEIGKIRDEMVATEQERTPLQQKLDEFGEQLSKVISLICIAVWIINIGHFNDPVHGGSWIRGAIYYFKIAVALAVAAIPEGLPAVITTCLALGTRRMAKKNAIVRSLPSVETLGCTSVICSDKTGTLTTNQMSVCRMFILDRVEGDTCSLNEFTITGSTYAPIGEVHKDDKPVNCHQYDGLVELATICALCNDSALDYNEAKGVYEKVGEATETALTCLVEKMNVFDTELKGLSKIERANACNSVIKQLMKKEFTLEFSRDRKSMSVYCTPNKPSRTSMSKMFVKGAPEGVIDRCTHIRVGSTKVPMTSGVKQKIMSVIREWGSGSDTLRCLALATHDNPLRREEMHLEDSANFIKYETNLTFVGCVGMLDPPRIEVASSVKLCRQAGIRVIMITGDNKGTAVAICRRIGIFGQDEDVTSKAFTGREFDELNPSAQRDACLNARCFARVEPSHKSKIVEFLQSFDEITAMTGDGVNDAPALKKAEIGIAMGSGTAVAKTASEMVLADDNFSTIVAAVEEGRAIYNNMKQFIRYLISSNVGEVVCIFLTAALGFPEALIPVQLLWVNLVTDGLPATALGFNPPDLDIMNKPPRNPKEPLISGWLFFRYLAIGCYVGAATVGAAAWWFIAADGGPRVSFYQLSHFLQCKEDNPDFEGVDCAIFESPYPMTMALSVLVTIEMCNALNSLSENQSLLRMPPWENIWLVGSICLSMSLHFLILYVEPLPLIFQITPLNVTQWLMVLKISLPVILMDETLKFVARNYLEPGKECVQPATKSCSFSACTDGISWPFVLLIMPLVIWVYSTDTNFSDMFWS

For `COc1ccc2c(c1)CN(CCCCNCCCCC1(O)CC1)CCS2` [11a, 1-(4-((4-(7-Methoxy-2,3-dihydrobenzo[1,4-f]thiazepin-4(5H)-yl)butyl)amino)butyl)cyclopropan-1-ol], the “SERCA2 ATPase activity in HEK-293 ER microsomes (in words)” value (“SERCA2 ATPase activity” for short) is “did not evoke a significant increase in ATPase activity; also recorded: could not detect SERCA2 activation”.

Turning to `COc1ccc(OCCCNCCCCC2(O)CC2)cc1` [11b, 1-(4-((3-(4-Methoxyphenoxy)propyl)amino)butyl)cyclopropan-1-ol], the “SERCA2 ATPase activity” value was “did not evoke a significant increase in ATPase activity”. As to `COc1ccc(SCCCNCCCCC2(O)CC2)cc1` [11c, 1-(4-((3-((4-Methoxyphenyl)thio)propyl)amino)butyl)cyclopropan-1-ol], the “SERCA2a HEK ER effect class” value is recorded as “+” and the “SERCA2 ATPase activity” value is on record as “significant activation of SERCA2 ATPase”. With `COc1ccc2c(c1)CN(CCCCC1(O)CC1)CCS2` [11d, 1-(4-(7-Methoxy-2,3-dihydrobenzo[1,4-f]thiazepin-4(5H)-yl)butyl)cyclopropan-1-ol], the “SERCA2a HEK ER effect class” value is recorded as “+” and the “SERCA2 ATPase activity” value is “significant activation of SERCA2 ATPase; also recorded: slight”. Consider `COc1ccc2c(c1)CN(CCCCN(CCCCC1(O)CC1)CCCCC1(O)CC1)CCS2` [12a, 1,1′-(((4-(7-Methoxy-2,3-dihydrobenzo[1,4-f]thiazepin-4(5H)-yl)butyl)azanediyl)bis(butane-4,1-diyl))bis(cyclopropan-1-ol)], for which the “SERCA2a HEK ER effect class” value is “++”. In addition, the EC50 (ATPase activity, value, interval, read-out: SERCA2a HEK ER (EC50)) was found to be 16 nM. With `COc1ccc(SCCCN(CCCCC2(O)CC2)CCCCC2(O)CC2)cc1` [12c, 1,1′-(((3-((4-Methoxyphenyl)thio)propyl)azanediyl)bis(butane-4,1-diyl))bis(cyclopropan-1-ol)], the “SERCA2a HEK ER effect class” value is recorded as “+”. Regarding `COc1ccc2c(c1)CN(Cc1ccc(C(=O)O)cc1)CCS2` [ARM210, reference compound], the “SERCA2a HEK ER effect class” value is reported as “+” and the “SERCA2 ATPase activity” value was “significant activation of SERCA2 ATPase”.
